Test results from PMC5218480 (PLoS ONE, 2017).

Tested on: MV-4-11 cells
Test: Gene expression microarray analysis (Affymetrix PrimeView) and GSEA
Format: cell-based, human
Parameters: RFU PODN (11730768_x_at) / Fold change /veh PODN (11730768_x_at) / RFU LINC00158 (11744669_a_at) / Fold change /veh LINC00158 (11744669_a_at) / RFU DUSP10 (11751237_a_at) / Fold change /veh DUSP10 (11751237_a_at) / RFU ID3 (11757404_x_at) / Fold change /veh ID3 (11757404_x_at) / RFU PLEKHG5 (11737974_s_at) / Fold change /veh PLEKHG5 (11737974_s_at) / RFU LRRC4B (11730491_at) / Fold change /veh LRRC4B (11730491_at) / RFU GIMAP4 (11747438_a_at) / Fold change /veh GIMAP4 (11747438_a_at) / RFU KRT8 (11758183_x_at) / Fold change /veh KRT8 (11758183_x_at) / RFU CNN1 (11734310_a_at) / Fold change /veh CNN1 (11734310_a_at) / RFU VPS37D (11726825_at) / Fold change /veh VPS37D (11726825_at) / RFU C10orf10 (11716522_x_at) / Fold change /veh C10orf10 (11716522_x_at) / RFU KIR2DL2 /// KIR2DL4 /// KIR2DL5A /// KIR2DL5B /// KIR2DS1 /// KIR2DS2 /// KIR2DS3 /// KIR2DS4 /// KIR3DL3 /// KIR3DL3 /// KIR3DS1 (11738374_at) / Fold change /veh KIR2DL2 /// KIR2DL4 /// KIR2DL5A /// KIR2DL5B /// KIR2DS1 /// KIR2DS2 /// KIR2DS3 /// KIR2DS4 /// KIR3DL3 /// KIR3DL3 /// KIR3DS1 (11738374_at) / RFU C1QL1 (11718748_at) / Fold change /veh C1QL1 (11718748_at) / RFU TMPRSS4 (11747572_a_at) / Fold change /veh TMPRSS4 (11747572_a_at) / RFU HAMP (11756126_x_at) / Fold change /veh HAMP (11756126_x_at) / RFU RNFT2 (11725882_a_at) / Fold change /veh RNFT2 (11725882_a_at) / RFU NR4A2 (11747474_a_at) / Fold change /veh NR4A2 (11747474_a_at) / RFU ABCC12 (11746883_a_at) / Fold change /veh ABCC12 (11746883_a_at) / RFU TMEM136 (11760407_x_at) / Fold change /veh TMEM136 (11760407_x_at) / RFU CLDN22 /// WWC2 (11732394_at) / Fold change /veh CLDN22 /// WWC2 (11732394_at) / RFU HLA-DPB1 (11760878_x_at) / Fold change /veh HLA-DPB1 (11760878_x_at) / RFU SPINT1 (11716480_a_at) / Fold change /veh SPINT1 (11716480_a_at) / RFU GAP43 (11754022_s_at) / Fold change /veh GAP43 (11754022_s_at) / RFU A4GNT (11735810_at) / Fold change /veh A4GNT (11735810_at) / RFU PRB3 (11715151_x_at) / Fold change /veh PRB3 (11715151_x_at) / RFU TUBB4B (11761932_at) / Fold change /veh TUBB4B (11761932_at) / RFU CAPN14 (11732068_a_at) / Fold change /veh CAPN14 (11732068_a_at) / RFU TMCC2 (11721928_a_at) / Fold change /veh TMCC2 (11721928_a_at) / RFU IRGQ (11745062_a_at) / Fold change /veh IRGQ (11745062_a_at) / RFU FAM174B (11720279_a_at) / Fold change /veh FAM174B (11720279_a_at) / RFU TMPRSS4 (11748680_a_at) / Fold change /veh TMPRSS4 (11748680_a_at) / RFU FAM212B (11763350_a_at) / Fold change /veh FAM212B (11763350_a_at) / RFU PLEKHG5 (11743358_a_at) / Fold change /veh PLEKHG5 (11743358_a_at) / RFU ZSCAN30 (11745921_a_at) / Fold change /veh ZSCAN30 (11745921_a_at) / RFU CMKLR1 (11741424_a_at) / Fold change /veh CMKLR1 (11741424_a_at) / RFU LOC101060620 /// MAPK8IP1 (11723275_at) / Fold change /veh LOC101060620 /// MAPK8IP1 (11723275_at) / RFU SPTSSB (11747773_x_at) / Fold change /veh SPTSSB (11747773_x_at) / RFU PRSS12 (11739890_at) / Fold change /veh PRSS12 (11739890_at) / RFU BIN1 (11741810_x_at) / Fold change /veh BIN1 (11741810_x_at) / RFU WNT11 (11732464_a_at) / Fold change /veh WNT11 (11732464_a_at) / RFU C10orf10 (11716521_a_at) / Fold change /veh C10orf10 (11716521_a_at) / RFU C5orf56 (11738089_at) / Fold change /veh C5orf56 (11738089_at) / RFU CYB561 (11721691_x_at) / Fold change /veh CYB561 (11721691_x_at) / RFU ANKRD19P (11752326_a_at) / Fold change /veh ANKRD19P (11752326_a_at) / RFU OR2T12 /// OR2T33 /// OR2T8 (11738714_s_at) / Fold change /veh OR2T12 /// OR2T33 /// OR2T8 (11738714_s_at) / RFU VCAN (11748164_a_at) / Fold change /veh VCAN (11748164_a_at) / RFU JSRP1 (11732532_at) / Fold change /veh JSRP1 (11732532_at) / RFU KRTAP10-11 (11738290_x_at) / Fold change /veh KRTAP10-11 (11738290_x_at) / RFU MYO3A (11730013_a_at) / Fold change /veh MYO3A (11730013_a_at) / RFU EBF3 (11725865_a_at) / Fold change /veh EBF3 (11725865_a_at) / RFU CAMK2N1 (11719241_x_at) / Fold change /veh CAMK2N1 (11719241_x_at) / RFU C5orf56 (11738088_a_at) / Fold change /veh C5orf56 (11738088_a_at) / RFU OLFML3 (11715873_a_at) / Fold change /veh OLFML3 (11715873_a_at) / RFU LOC100653217 /// NTM (11731650_a_at) / Fold change /veh LOC100653217 /// NTM (11731650_a_at) / RFU MAPK11 (11762145_a_at) / Fold change /veh MAPK11 (11762145_a_at) / RFU FIZ1 (11724087_x_at) / Fold change /veh FIZ1 (11724087_x_at) / RFU OASL (11726364_x_at) / Fold change /veh OASL (11726364_x_at) / RFU SOX15 (11748057_x_at) / Fold change /veh SOX15 (11748057_x_at) / RFU CD79A (11719716_a_at) / Fold change /veh CD79A (11719716_a_at) / RFU HIST1H1D (11736915_at) / Fold change /veh HIST1H1D (11736915_at) / RFU CASKIN2 (11723855_a_at) / Fold change /veh CASKIN2 (11723855_a_at) / RFU LOC730098 (11760151_x_at) / Fold change /veh LOC730098 (11760151_x_at) / RFU OR4N2 (11742367_at) / Fold change /veh OR4N2 (11742367_at) / RFU PRRT2 (11749266_a_at) / Fold change /veh PRRT2 (11749266_a_at) / RFU SNX32 (11753110_a_at) / Fold change /veh SNX32 (11753110_a_at) / RFU CDHR5 (11726645_a_at) / Fold change /veh CDHR5 (11726645_a_at) / RFU RCAN1 (11760418_a_at) / Fold change /veh RCAN1 (11760418_a_at) / RFU FAM167A (11723789_a_at) / Fold change /veh FAM167A (11723789_a_at) / RFU FAM26E (11764081_at) / Fold change /veh FAM26E (11764081_at) / RFU ISYNA1 (11749810_s_at) / Fold change /veh ISYNA1 (11749810_s_at) / RFU ACY1 (11761880_at) / Fold change /veh ACY1 (11761880_at) / RFU 11764098_at / Fold change /veh 11764098_at / RFU SAMD14 (11745864_x_at) / Fold change /veh SAMD14 (11745864_x_at) / RFU NPB (11741838_a_at) / Fold change /veh NPB (11741838_a_at) / RFU TMPRSS6 (11731388_a_at) / Fold change /veh TMPRSS6 (11731388_a_at) / RFU KRTAP10-2 (11738614_at) / Fold change /veh KRTAP10-2 (11738614_at) / RFU ARHGAP8 /// PRR5-ARHGAP8 (11727945_x_at) / Fold change /veh ARHGAP8 /// PRR5-ARHGAP8 (11727945_x_at) / RFU KRTAP5-7 /// NADSYN1 (11734609_at) / Fold change /veh KRTAP5-7 /// NADSYN1 (11734609_at) / RFU RASL12 (11751679_a_at) / Fold change /veh RASL12 (11751679_a_at) / RFU CDKN2B (11736163_a_at) / Fold change /veh CDKN2B (11736163_a_at) / RFU PRF1 (11729649_at) / Fold change /veh PRF1 (11729649_at) / RFU, ZNF638 /// ZNF638-IT1 / Fold change vs veh, ZNF638 /// ZNF638-IT1 / RFU, PANK3 / Fold change vs veh, PANK3 / RFU, SH3YL1 / Fold change vs veh, SH3YL1 / RFU, ZEB2 / Fold change vs veh, ZEB2 / RFU, NRIP1 / Fold change vs veh, NRIP1 / RFU, PTTG1IP / Fold change vs veh, PTTG1IP / RFU, CAPN2 / Fold change vs veh, CAPN2 / RFU, MED14 / Fold change vs veh, MED14 / RFU, SNORA58 / Fold change vs veh, SNORA58 / RFU, C1orf63 / Fold change vs veh, C1orf63 / RFU, LRRFIP1 / Fold change vs veh, LRRFIP1 / RFU, NDUFAF7 / Fold change vs veh, NDUFAF7 / RFU, SLC12A2 / Fold change vs veh, SLC12A2 / RFU, IBTK / Fold change vs veh, IBTK / RFU, ESF1 / Fold change vs veh, ESF1 / Fold change vs veh, TMEM50B / RFU, TAOK1 / Fold change vs veh, TAOK1 / RFU, ACBD3 / Fold change vs veh, ACBD3 / RFU, TMA16 / Fold change vs veh, TMA16 / RFU, RWDD3 / Fold change vs veh, RWDD3 / RFU, BCAT1 / Fold change vs veh, BCAT1 / RFU, EDEM3 / Fold change vs veh, EDEM3 / RFU, TMEM33 / Fold change vs veh, TMEM33 / RFU, WDR75 / Fold change vs veh, WDR75 / RFU, AHCTF1 / Fold change vs veh, AHCTF1 / RFU, TFRC / Fold change vs veh, TFRC / RFU, ZDHHC17 / Fold change vs veh, ZDHHC17 / RFU, NOM1 / Fold change vs veh, NOM1 / RFU, ARL8B / Fold change vs veh, ARL8B / RFU, ZBTB11 / Fold change vs veh, ZBTB11 / RFU, TAMM41 / Fold change vs veh, TAMM41 / RFU, KIAA1704 /// LOC100996395 / Fold change vs veh, KIAA1704 /// LOC100996395 / RFU, ING1 / Fold change vs veh, ING1 / RFU, TRMT61B / Fold change vs veh, TRMT61B / RFU, FUBP3 / Fold change vs veh, FUBP3 / RFU, TP53 / Fold change vs veh, TP53 / RFU, TNKS2 / Fold change vs veh, TNKS2 / RFU, ZFP14 / Fold change vs veh, ZFP14 / RFU, ACTR2 / Fold change vs veh, ACTR2 / RFU, PPP3R1 / Fold change vs veh, PPP3R1 / RFU, PIK3R1 / Fold change vs veh, PIK3R1 / RFU, HNRNPA1 / Fold change vs veh, HNRNPA1 / RFU, RNF170 / Fold change vs veh, RNF170 / RFU, ZNF28 / Fold change vs veh, ZNF28 / RFU, RNGTT / Fold change vs veh, RNGTT / RFU, OGT / Fold change vs veh, OGT / RFU, BRD1 / Fold change vs veh, BRD1 / RFU, MARS / Fold change vs veh, MARS / RFU, ZNF655 / Fold change vs veh, ZNF655 / RFU, FAHD1 / Fold change vs veh, FAHD1 / RFU, BDP1 / Fold change vs veh, BDP1 / RFU, LRRCC1 / Fold change vs veh, LRRCC1 / RFU, ARID1A / Fold change vs veh, ARID1A / RFU, ZNF146 / Fold change vs veh, ZNF146 / RFU, ZNF330 / Fold change vs veh, ZNF330 / RFU, GPN3 / Fold change vs veh, GPN3 / RFU, C9orf123 / Fold change vs veh, C9orf123 / RFU, N4BP2L2 / Fold change vs veh, N4BP2L2 / RFU, ARFIP1 / Fold change vs veh, ARFIP1 / RFU, FAM179B / Fold change vs veh, FAM179B / RFU, BCL10 / Fold change vs veh, BCL10 / RFU, UHRF1BP1L / Fold change vs veh, UHRF1BP1L / RFU, BET1 / Fold change vs veh, BET1 / RFU, CNOT2 / Fold change vs veh, CNOT2 / RFU, ZNF268 / Fold change vs veh, ZNF268 / Fold change vs veh, ZNF507 / RFU, DGCR2 / Fold change vs veh, DGCR2 / RFU, WDSUB1 / Fold change vs veh, WDSUB1 / Fold change vs veh, HSP90B1 /// MIR3652 / RFU, ADSS / Fold change vs veh, ADSS / RFU, GK / Fold change vs veh, GK / RFU, ZNF148 / Fold change vs veh, ZNF148 / RFU, TAF9 / Fold change vs veh, TAF9 / RFU, SLC1A5 / Fold change vs veh, SLC1A5 / RFU, SLMO2 / Fold change vs veh, SLMO2 / RFU, ABCC4 / Fold change vs veh, ABCC4 / RFU, LOC101060439 /// RAP1B / Fold change vs veh, LOC101060439 /// RAP1B / RFU, RFX7 / Fold change vs veh, RFX7 / RFU, GTPBP10 / Fold change vs veh, GTPBP10 / RFU, CNEP1R1 / Fold change vs veh, CNEP1R1 / RFU, BIVM-ERCC5 /// ERCC5 / Fold change vs veh, BIVM-ERCC5 /// ERCC5 / RFU, ILF3 / Fold change vs veh, ILF3 / RFU 11762660_at / Fold change /veh 11762660_at / RFU VCAN (11757783_s_at) / Fold change /veh VCAN (11757783_s_at) / RFU DDX43 (11728927_at) / Fold change /veh DDX43 (11728927_at) / RFU KRT8 (11758188_x_at) / Fold change /veh KRT8 (11758188_x_at) / RFU NKD1 (11759106_at) / Fold change /veh NKD1 (11759106_at) / RFU SRD5A1 (11742802_a_at) / Fold change /veh SRD5A1 (11742802_a_at) / RFU TPSAB1 /// TPSB2 (11721975_s_at) / Fold change /veh TPSAB1 /// TPSB2 (11721975_s_at) / RFU GSTM3 (11746129_a_at) / Fold change /veh GSTM3 (11746129_a_at) / RFU IL23R (11737362_x_at) / Fold change /veh IL23R (11737362_x_at) / RFU TMEM51 (11727254_a_at) / Fold change /veh TMEM51 (11727254_a_at) / RFU PIWIL2 (11732686_x_at) / Fold change /veh PIWIL2 (11732686_x_at) / RFU ORM1 (11744905_x_at) / Fold change /veh ORM1 (11744905_x_at) / RFU CCDC152 (11743942_at) / Fold change /veh CCDC152 (11743942_at) / RFU ECM1 (11717891_a_at) / Fold change /veh ECM1 (11717891_a_at) / RFU IL23R (11748794_a_at) / Fold change /veh IL23R (11748794_a_at) / RFU TNFAIP8L3 (11732012_x_at) / Fold change /veh TNFAIP8L3 (11732012_x_at) / RFU MBOAT4 (11741988_at) / Fold change /veh MBOAT4 (11741988_at) / RFU 11764193_at / Fold change /veh 11764193_at / RFU TMEM53 (11763286_at) / Fold change /veh TMEM53 (11763286_at) / RFU MAGEB2 (11727129_at) / Fold change /veh MAGEB2 (11727129_at) / RFU TMEM200A (11744735_a_at) / Fold change /veh TMEM200A (11744735_a_at) / RFU CCDC152 (11751479_a_at) / Fold change /veh CCDC152 (11751479_a_at) / RFU FAM211A (11726209_a_at) / Fold change /veh FAM211A (11726209_a_at) / RFU RGS16 (11746705_a_at) / Fold change /veh RGS16 (11746705_a_at) / RFU VCAN (11755009_s_at) / Fold change /veh VCAN (11755009_s_at) / RFU RHOB (11743442_s_at) / Fold change /veh RHOB (11743442_s_at) / RFU RGS16 (11720943_a_at) / Fold change /veh RGS16 (11720943_a_at) / RFU RGS16 (11720944_at) / Fold change /veh RGS16 (11720944_at) / RFU, VPS4B / Fold change vs veh, VPS4B / RFU, CREB1 / Fold change vs veh, CREB1 / RFU, DNAJC13 / Fold change vs veh, DNAJC13 / RFU, GNAQ / Fold change vs veh, GNAQ / RFU, CDK5R1 / Fold change vs veh, CDK5R1 / RFU, ZRANB3 / Fold change vs veh, ZRANB3 / RFU, CUL4A / Fold change vs veh, CUL4A / RFU, CCNY / Fold change vs veh, CCNY / RFU, UFL1 / Fold change vs veh, UFL1 / RFU, COG3 / Fold change vs veh, COG3 / RFU, DIAPH2 / Fold change vs veh, DIAPH2 / RFU, SKA2 / Fold change vs veh, SKA2 / RFU, AFF3 / Fold change vs veh, AFF3 / RFU, LMF1 / Fold change vs veh, LMF1 / RFU, IPO11 / Fold change vs veh, IPO11 / RFU, DFFB / Fold change vs veh, DFFB / RFU, FOXP1 / Fold change vs veh, FOXP1 / RFU, CARD8 / Fold change vs veh, CARD8 / RFU, STRN3 / Fold change vs veh, STRN3 / RFU, ADK / Fold change vs veh, ADK / RFU, RASSF2 / Fold change vs veh, RASSF2 / RFU, WIPF1 / Fold change vs veh, WIPF1 / RFU, LARP1B / Fold change vs veh, LARP1B / RFU, RASA1 / Fold change vs veh, RASA1 / RFU, RB1 / Fold change vs veh, RB1 / RFU, PPFIA1 / Fold change vs veh, PPFIA1 / RFU, MAT2A / Fold change vs veh, MAT2A / RFU, CCT5 / Fold change vs veh, CCT5 / RFU, WDR92 / Fold change vs veh, WDR92 / RFU, CUX1 / Fold change vs veh, CUX1 / RFU, TTC7A / Fold change vs veh, TTC7A / RFU, TMEM135 / Fold change vs veh, TMEM135 / RFU, DEPTOR / Fold change vs veh, DEPTOR / RFU, CPM / Fold change vs veh, CPM / RFU, DNAJB6 / Fold change vs veh, DNAJB6 / RFU, CACNA2D3 / Fold change vs veh, CACNA2D3 / RFU, DTX4 / Fold change vs veh, DTX4 / RFU, TFCP2 / Fold change vs veh, TFCP2 / RFU, GMCL1 /// GMCL1P1 / Fold change vs veh, GMCL1 /// GMCL1P1 / RFU, AEBP2 / Fold change vs veh, AEBP2 / RFU, SNHG1 /// SNORD22 /// SNORD25 /// SNORD26 /// SNORD27 /// SNORD28 /// SNORD29 /// SNORD31 / Fold change vs veh, SNHG1 /// SNORD22 /// SNORD25 /// SNORD26 /// SNORD27 /// SNORD28 /// SNORD29 /// SNORD31 / Fold change (Aza/veh), C12orf56 (ProbeSet 11735607_a_at) / Fold change (ACY-1035/veh), C12orf56 (ProbeSet 11735607_a_at) / Fold change (Aza/veh), FGFR1OP (ProbeSet 11751329_s_at) / Fold change (ACY-1035/veh), FGFR1OP (ProbeSet 11751329_s_at) / Fold change (Aza/veh), VPS36 (ProbeSet 11739960_a_at) / Fold change (ACY-1035/veh), VPS36 (ProbeSet 11739960_a_at) / RFU SYPL1 (11715823_x_at) / Fold change /veh SYPL1 (11715823_x_at) / RFU IGFBP7 (11715501_s_at) / Fold change /veh IGFBP7 (11715501_s_at) / RFU REEP3 (11722064_at) / Fold change /veh REEP3 (11722064_at) / RFU IGLL1 (11728026_x_at) / Fold change /veh IGLL1 (11728026_x_at): dose or concentration left out as unconfirmed
Details: MV-4-11 cells, 48 hours

With `Nc1ccc(-c2cccs2)cc1NC(=O)c1ccc2c(c1)cc(C1CC1)n2CCN1CCOCC1` [ACY-1035] the “Fold change /veh C5orf56 (11738089_at)” value was 1.04.
